Literature values as cited in patent US11325944B2 (priority 2017, dated 2022).
pKd: −log10 of the molar value. [ ]: non-standard residue; d: D form.

What was measured:
[1] = tested on: KOR
[2] = target: KOR (Homo sapiens, UniProt P41145)
[3] = target: DOR; details: δ opioid receptor, CHO cell membranes; read-out: Kd of radioligand

Sequence of KOR (Homo sapiens, UniProt P41145) (P41145 whole entry): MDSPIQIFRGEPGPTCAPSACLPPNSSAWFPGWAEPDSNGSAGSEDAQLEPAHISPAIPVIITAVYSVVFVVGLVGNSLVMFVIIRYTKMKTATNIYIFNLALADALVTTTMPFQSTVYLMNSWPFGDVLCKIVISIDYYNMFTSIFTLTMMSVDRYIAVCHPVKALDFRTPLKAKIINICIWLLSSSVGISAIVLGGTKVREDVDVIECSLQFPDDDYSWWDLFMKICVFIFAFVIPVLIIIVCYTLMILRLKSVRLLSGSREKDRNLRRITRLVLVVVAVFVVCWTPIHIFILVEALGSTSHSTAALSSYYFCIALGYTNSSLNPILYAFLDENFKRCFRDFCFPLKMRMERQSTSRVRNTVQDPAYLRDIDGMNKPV

Substance: cyclo [CJ-15,208, cyclo [Phe-D-Pro-Phe-Trp]]
- agonist (antinociceptive) activity in vivo [1]: mild agonist (antinociceptive) activity

Substance: cyclo(F[dP]F[dW]) [[D-Trp]CJ-15,208]
- selectivity for KOR over MOR and DOR [2]: selective activity against the kappa opioid receptor (KOR) over mu opioid receptors (MOR) and delta opioid receptors (DOR)
- KOR antagonism in vitro ([2]; in vitro): antagonize KOR in vitro
- KOR antagonism ([1]; in vivo): exhibited KOR antagonism

Substance: cyclo[D-Pen^2, D-Pen]enkephalin [[^3H]-DPDPE]
- pKd [3]: 8.75
